This note sets out measurements from article PMC10131537, “Degradation of neurodegenerative disease-associated TDP-43 aggregates and oligomers via a proteolysis-targeting chimera” (Journal of Biomedical Science, 2023).

This assay deals with T1, cereblon (CRBN) (Homo sapiens, UniProt Q96SW2).
T1 construct: GST-tagged human cereblon/DDB1, co-expressed by baculovirus; with DDB1
The experiment in a line: competitive TR-FRET binding assay versus XL-665-labelled thalidomide. For orientation: Time-resolved FRET reads energy transfer from a long-lived donor to a nearby acceptor.

What is called EC50 is the concentration at which the effect is half-maximal. Read a low EC50 as an effect from little substance. The compound `CN(C)c1ccc(-c2nc3ccc(OCCOCCOCCNc4cccc5c4C(=O)N(C4CCC(=O)NC4=O)C5=O)cc3s2)cc1` (stereo not shown) [compound 2, 4-((2-(2-(2-((2-(4-(Dimethylamino)phenyl)benzo[d]thiazol-6-yl)oxy)ethoxy)ethoxy)ethyl)amino)-2-(2,6-dioxopiperidin-3-yl)isoindoline-1,3-dione] returned an EC50 of 600 nM.
